# Where two headings read alike, the source gives them in different places.
# Test: Pharmacokinetics of subcutaneous LEN in pigtail macaques
# Type: in vivo, pigtail macaques (Macaca nemestrina)
# Settings: for range of peak plasma LEN concentration after second dose / mean peak plasma LEN concentration after first dose / range of peak plasma LEN concentration after first dose: N = 3; for time mean plasma drug concentrations above the PA-EC95: two doses 6 weeks apart; for half-life: sc
# Description: Sixteen male, purpose-bred pigtail macaques (Macaca nemestrina; ages 4.6–8.5 years at the time of study initiation) were housed at NIH-Bethesda (Supplementary Table S1). All study animals received enrofloxacin (10 mg/kg, administered orally, once per day for 10 days), paromomycin (25 mg/kg, administered orally, twice daily for 7–10 days), and fenbendazole (50 mg/kg administered orally, once per day for 5 days) two weeks to 43 months prior to study initiation. Lenacapavir or drug vehicle (sterile, preservative-free 57.5% w/v polyethylene glycol 300 in water) doses were administered to sedated animals via SC injection into the scapular region such that no more than 2 ml of solution was injected into a single SC site. Animals in the LEN pharmacokinetic evaluation study (N = 6) each received two doses of LEN, both at 15 mg/kg (N = 3) or at 50 mg/kg (N = 3), 6 weeks apart. Animals in the virus challenge experiment each received a single dose of LEN at 25 mg/kg (N = 3, LEN PrEP group) or drug vehicle (N = 4, vehicle control group) 30 days prior to stHIV-A19 challenge, or a cART regimen consisting of tenofovir disoproxil fumarate (TDF), emtricitabine (FTC), and dolutegravir (DTG) (N = 3, TDF/FTC/DTG group), coformulated and administered as previously described[29]^,[30] for 7 days beginning 3 days prior to stHIV-A19 challenge (Supplementary Figure S1). Hair was clipped and skin marked at LEN and vehicle injection sites to allow for subsequent visual and manual assessment and scoring of potential ISRs by non-blinded veterinary care staff. Complete blood counts (CBC) and serum chemistries were monitored prior to and at 2- to 4-week intervals after LEN administration for at least one year. Following the first dose of LEN in the PK study, one animal in the 50-mg/kg dosing group received 7 consecutive days of daily ketoprofen (2 mg/kg) administered intramuscularly for ISR analgesia at veterinary discretion. For the second dose of LEN in the PK study, all animals in the 50-mg/kg dosing group received 5–7 consecutive days of twice daily oral carprofen (2 mg/kg) analgesia administered prophylactically starting on the day of LEN dosing. In the IV challenge PrEP study, all LEN and vehicle control animals received 3–5 consecutive days of twice daily oral carprofen (2 mg/kg) analgesia administered prophylactically starting on the day of injection. For virus challenge, PrEP study animals each received 1 × 10^5 infectious units of stHIV-A19 injected intravenously. After LEN washout, LEN PrEP group animals received a single 50-mg/kg dose of rhesusized depleting anti-CD8α antibody (MT807R1, RRID: AB_2716320, NIH Nonhuman Primate Reagent Resource), administered SC to anesthetized animals.
# Whole blood was collected in EDTA Vacutainer Tubes (BD) from sedated animals. Plasma for vRNA quantification, LEN concentration determination, and HIV-1 Western blot analysis was separated from whole blood and clarified by centrifugation, and then stored at −80 °C. Following plasma separation, the blood cellular component was resuspended in an equivalent volume of PBS and then PBMCs were isolated by Ficoll-Paque Plus (GE Healthcare) gradient centrifugation. Portions of isolated PBMC samples were cryopreserved as dry cell pellets for CA-vDNA quantification.
# Pigtail macaque plasma samples stored frozen at −80 °C were thawed, and a 50 μl aliquot of each was treated with 200 μl acetonitrile containing a generic internal small-molecule standard. After precipitation of the protein component, a 150 μl aliquot of the supernatant was transferred to a clean 96-well plate and evaporated to dryness under a nitrogen stream. The samples were reconstituted with 100 μL of 50% acetonitrile and then injected into an API-6500+ QTRAP triple quadrupole mass spectrometer (SciEx) with electrospray ionization in positive mode. […]
# [1] = 15 mg/kg SC on Study Day 0 and 42, PTM, N = 3, mean ± SD
# [2] = 25 mg/kg single SC dose on Study Day 0, PTM, N = 3, mean ± SD
# [3] = 25 mg/kg single SC dose, all three animals
# [4] = 50 mg/kg SC on Study Day 0 and 42, PTM, N = 3, mean ± SD
structure (smiles),measurement,setting,value
"CC(C)(C#Cc1ccc(-c2ccc(Cl)c3c(NS(C)(=O)=O)nn(CC(F)(F)F)c23)c([C@H](Cc2cc(F)cc(F)c2)NC(=O)Cn2nc(C(F)(F)F)c3c2C(F)(F)[C@@H]2C[C@H]32)n1)S(C)(=O)=O [LEN, Lenacapavir]",range of peak plasma LEN concentration after second dose,"15 mg/kg SC on Study Day 0 and 42, PTM",57 to 77 nM
same,AUCinf,[1],80.9 ± 2.5 μM∗h
same,AUClast,[1],80.7 ± 2.5 μM∗h
same,Cmax,"15 mg/kg SC on Study Day 0 and 42, PTM, N = 3, mean ± SD, read-out: Cmax (mean peak plasma concentration after second dose)",67.8 ± 10.1 nM
same,mean peak plasma LEN concentration after first dose,"15 mg/kg SC, PTM",16 nM
same,range of peak plasma LEN concentration after first dose,"15 mg/kg SC, PTM",10 to 28 nM
same,time mean plasma drug concentrations above the PA-EC95,"15 mg/kg SC, PTM",> 189 days
same,AUCinf,[2],92.0 ± 17.8 μM∗h
same,AUClast,[2],91.3 ± 17.8 μM∗h
same,plasma LEN concentration at time of stHIV-A19 challenge relative to PA-EC95,"25 mg/kg single SC dose, 30 days after dosing, all 3 animals",> 5 fold
same,plasma LEN at 419 days post-challenge,"25 mg/kg single SC dose, LEN PrEP animals",no longer detected in plasma
same,time plasma LEN concentrations remaining above the PA-EC95,[3],> 200 days
same,"time plasma LEN remaining above the lower limit of quantitation (LLOQ, 0.1 nM)",[3],more than one year
same,range of peak plasma LEN concentration after second dose,"50 mg/kg SC on Study Day 0 and 42, PTM",234 to 350 nM
same,AUCinf,[4],408 ± 106 μM∗h
same,AUClast,[4],408 ± 106 μM∗h
same,mean peak plasma LEN concentration after first dose,"50 mg/kg SC, PTM",95 nM
same,range of peak plasma LEN concentration after first dose,"50 mg/kg SC, PTM",48 to 120 nM
same,time mean plasma drug concentrations above the PA-EC95,"50 mg/kg SC, PTM",> 245 days
same,half-life,"male, monkey, in vivo, 15 mg/kg, 15 mg/kg SC on Study Day 0 and 42, PTM, N = 3, mean ± SD, read-out: t1/2 (converted)",42.1 ± 28.2 days
same,half-life,"male, monkey, in vivo, 15 mg/kg, 15 mg/kg SC, after second dose, PTM, read-out: mean terminal half-life (t1/2) (converted)",42 days
same,half-life,"male, monkey, in vivo, 25 mg/kg, 25 mg/kg single SC dose on Study Day 0, PTM, N = 3, mean ± SD, read-out: t1/2 (converted)",38.5 ± 14.2 days
same,half-life,"male, monkey, in vivo, 50 mg/kg, 50 mg/kg SC on Study Day 0 and 42, PTM, N = 3, mean ± SD, read-out: t1/2 (converted)",48.3 ± 5.83 days
same,half-life,"male, monkey, in vivo, 50 mg/kg, 50 mg/kg SC, after second dose, PTM, read-out: mean terminal half-life (t1/2) (converted)",48 days
same,Cmax,"male, monkey, plasma, Cmax (mean peak plasma concentration after second dose), 15 mg/kg SC on Study Day 0 and 42, PTM, N = 3, mean ± SD, read-out: Cmax (mean peak plasma concentration after second dose)",68 nM
same,Cmax,"male, monkey, plasma, Cmax (mean peak plasma concentration after second dose), 50 mg/kg SC on Study Day 0 and 42, PTM, N = 3, mean ± SD, read-out: Cmax (mean peak plasma concentration after second dose)",295 ± 58 nM
same,Cmax,"male, monkey, plasma, Cmax, 25 mg/kg single SC dose on Study Day 0, PTM, N = 3, mean ± SD, read-out: Cmax",47 ± 5.7 nM
same,half-life,"male, pigtail macaque, in vivo, 25 mg/kg, 25 mg/kg single SC dose, PTM, read-out: mean t1/2 (converted)",38.5 days
same,concentration at 30 days,"male, pigtail macaque, in vivo, 25 mg/kg single SC dose, 30 days after dosing, range of 3 animals, read-out: plasma LEN concentrations at the time of stHIV-A19 challenge",8.6 to 51.2 nM

# Source: publication PMC10470178, “Long-acting lenacapavir protects macaques against intravenous challenge with simian-tropic HIV” (eBioMedicine, 2023)
